Experiments:
cardiac fibroblasts [1] = test: Protein synthesis assay (3H-leucine incorporation); type: cell-based, rat; settings: co-incubation with inhibitor, CT-1 10 ng/mL
Method: Protein synthesis was determined using the methods of Wolf and Neilson (Wolf and Neilson, 1990, Am J Physiol 259: 768-777). 2.5×10^4 cells (counted with a hemacytometer) were loaded into each well of 24-well plates, allowed to attach overnight, then rendered quiescent in serum free DMEM/F12 for 24 hours. Cells were stimulated with CT-1 for an additional 24 hours in the presence of 2 μCi/mL ^3H-leucine with or without inhibitors of signaling pathways. The culture media was aspirated, cells rinsed twice with phosphate buffered saline and proteins precipitated by two incubations with 10% TCA at room temperature. The precipitated protein was solubilized in 300 μl lysis buffer containing 0.5 M NaOH and 1% Triton X-100 at room temperature for 15 minutes. The lysate was transferred to scintillation vials, and beta emission was determined with 3 ml Ecolume scintillation fluid (ICN Pharmaceuticals) and a scintillation counter (LS6500, Beckman Coulter, Fullerton, Calif.).

cardiac fibroblasts [2] = test: Western analysis of phosphorylation of translational regulatory proteins; type: cell-based, rat; settings: co-incubation with inhibitor
Method: (§1) Protein concentrations of tissue and cell lysates were determined by the BCA method (Smith et al., 1985, Anal Biochem 150: 76-85). Proteins were separated by 8-12% SDS-PAGE and transferred to PVDF membrane (Roche, Indianapolis, Ind.) for 1 hour at 300 mA for small proteins or for 2 hours at 500 mA for proteins greater than 100 kDa. Membranes were blocked with 5% non-fat skim milk in tris-buffered saline containing 0.2% Tween 20 (TBST). Proteins were visualized with ECL Plus (Amersham) after probing with primary and secondary antibodies. Band intensity was quantified using a CCD camera imaging densitometer (GS670, Bio-Rad Laboratories (Canada) Ltd. Mississauga, Ontario).
To determine the effect of CT-1 on protein synthesis in cardiac fibroblasts we measured incorporation of ^3H-labeled leucine. […] Since the activity of translational regulatory proteins is modified by phosphorylation, we used phospho-specific antibodies to determine if CT-1 directly influenced the activity of these regulatory proteins.
We then determined the effect of pharmacologic inhibitors on the activation of this signaling cascade.

cardiac fibroblasts [3] = test: Wounded monolayer model, cortactin immunostaining; type: cell-based, rat; settings: co-incubation with inhibitor
Method: Cardiac fibroblasts were seeded onto coverslips in 6-well dishes and allowed to proliferate. Once the cells were near confluency, they were serum deprived for 24 hours. A scrape was made down the middle of the coverslip with the blunt end of a 1 ml syringe and the media was changed again. Cells were further incubated in the presence or absence of CT-1 and inhibitors at specified concentrations for specified times. The cells were then subjected to immunofluorescence staining as described herein.

cardiac fibroblasts [4] = test: Western analysis of myosin light chain phosphorylation; type: cell-based, rat; settings: co-incubation with inhibitor, 30 minutes
Method: as §1
The infarct zone is repopulated by interstitial fibroblasts that infiltrate the scar after MI. […] Similar results were obtained when using the Costar Transwell® system (data not shown). To determine how the chemotactic response is transduced, we used specific inhibitors of intracellular signaling pathways. […] This effect could be blunted by co-incubation with AG490 (FIG. 22). […] Since activation of myosin motors is required for effective cell migration, and CT-1 induced migration could be inhibited by co-incubation with a myosin light chain kinase inhibitor, we sought to determine the effect of CT-1 on the phosphorylation status of myosin light chain. Myosin light chain regulates the ATPase activity of myosin heavy chain, and thus overall contractile activity. […] Myosin light chain phosphorylation could be prevented by co-incubation with ML-7 or W7 but not AG490 or PP2 (FIG. 25b).

angiotensinogen mRNA = settings: cited from earlier work
other kinases = settings: cited from earlier work

N#C/C(=C\c1ccc(O)c(O)c1)C(=O)NCc1ccccc1 [AG490, Tyrphostin B42]
effect on CT-1 induced protein synthesis (3H-leucine uptake) (cardiac fibroblasts [1]): suppressed | effect on CT-1 induced activation of ERK 1/2, p38 MAPK, mTOR, p70 S6 kinase S421/T424, or S6 ribosomal protein (cardiac fibroblasts [2]): did not significantly affect | effect on CT-1 induced phosphorylation of Akt at both sites, p70 S6 kinase T389, Mnk1, eIF4E and 4E-BP1 (cardiac fibroblasts [2]): suppressed | effect on CT-1 induced cortactin localization at the leading edge (cardiac fibroblasts [3]): blunted | effect on CT-1 induced myosin light chain phosphorylation (cardiac fibroblasts [4]): not | angiotensinogen mRNA production in response to CT-1 stimulation (angiotensinogen mRNA): attenuate

O=S(=O)(c1cccc2c(I)cccc12)N1CCCNCC1 [ML-7]
effect on CT-1 induced myosin light chain phosphorylation (cardiac fibroblasts [4]): prevented

COc1cccc(-c2cc(=O)c3ccccc3o2)c1N [PD98059]
effect on CT-1 induced protein synthesis (3H-leucine uptake) (cardiac fibroblasts [1]): suppressed | effect on CT-1 induced phosphorylation of Akt, mTOR, p70 S6 kinase, 4EB-P1 and S6 ribosomal protein (cardiac fibroblasts [2]): lesser effect | effect on basal and CT-1 induced phosphorylation of ERK 1/2, Mnk1, and eIF4E (cardiac fibroblasts [2]): greatest inhibitory effect | concentration at which selectivity is maintained (other kinases): ≤ 50 µM

CC(C)(C)n1nc(-c2ccc(Cl)cc2)c2c(N)ncnc21 [PP2]
effect on CT-1 induced myosin light chain phosphorylation (cardiac fibroblasts [4]): not

C[S+]([O-])c1ccc(-c2nc(-c3ccncc3)c(-c3ccc(F)cc3)[nH]2)cc1 (stereo not drawn) [SB203580]
effect on CT-1 induced protein synthesis (3H-leucine uptake) (cardiac fibroblasts [1]): suppressed | effect on CT-1 induced phosphorylation of Akt, p70 S6 kinase and Mnk1 (cardiac fibroblasts [2]): suppressed

NCCCCCCNS(=O)(=O)c1cccc2c(Cl)cccc12 [W7]
effect on CT-1 induced myosin light chain phosphorylation (cardiac fibroblasts [4]): prevented
